Data on 26 compounds can be found in US7411083B2, “Substituted acetic acid derivatives” (Wyeth, priority 2003, dated 2008).

T1 sequence (P05121 24-402): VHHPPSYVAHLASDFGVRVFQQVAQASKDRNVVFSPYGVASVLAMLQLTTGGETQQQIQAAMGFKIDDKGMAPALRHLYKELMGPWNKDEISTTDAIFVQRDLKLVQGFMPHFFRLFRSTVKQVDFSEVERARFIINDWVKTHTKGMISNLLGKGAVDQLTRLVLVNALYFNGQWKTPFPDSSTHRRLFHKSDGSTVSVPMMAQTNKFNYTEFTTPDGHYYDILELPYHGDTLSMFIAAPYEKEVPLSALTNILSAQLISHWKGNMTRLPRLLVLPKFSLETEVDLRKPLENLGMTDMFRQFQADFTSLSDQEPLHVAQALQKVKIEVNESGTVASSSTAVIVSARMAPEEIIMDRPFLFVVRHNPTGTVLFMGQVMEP

This test addresses T1, recombinant human plasminogen activator inhibitor-1 (PAI-1) (Homo sapiens, UniProt P05121).
T1 construct: purchased Molecular Innovations, Royal Oak, Mich
The experiment in a line: Screening for PAI-1 inhibition (residual tPA activity, Spectrozyme-tPA chromogenic substrate). Format: biochemical. The note with it: test compound at 100 Um; pH 6.6 buffer, 140 nM PAI-1, 70 nM tPA. An outline of the steps: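 PAI-1 at 140 nM, pH 6.6 buffer, preincubated 1 h at room temperature with compound (1-100 μM final, ≤0.2% DMSO), then 70 nM tPA added for 30 min. Residual tPA activity read by Spectrozyme-tPA absorbance at 405 nm at 0 and 60 min. Inhibition taken as residual tPA activity.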
The inhibition is the relative decrease from the control value, in per cent. Regarding `O=C(O)CO/N=C/c1ccc(OCc2cccc(C(F)(F)F)c2)cc1OCc1cccc(C(F)(F)F)c1` [Compound 130, ({[(1E)-(2,4-bis{[3-(trifluoromethyl)benzyl]oxy}phenyl)methylidene]amino}oxy)acetic acid], the inhibition at 100 µM turned out to be 91%. As for `O=C(O)CO/N=C/c1ccc(OCc2ccc(F)c(F)c2)cc1OCc1ccc(F)c(F)c1` [Compound 131, {[((1E)-{2,4-bis[(3,4-difluorobenzyl)oxy]phenyl}methylidene)amino]oxy}acetic acid], the inhibition at 100 µM came to 88%. Under `O=C(O)CO/N=C/c1cccc(OCc2ccc(Br)cc2)c1OCc1ccc(Br)cc1` [Compound 132, {[((1E)-{2,3-bis[(4-bromobenzyl)oxy]phenyl}methylidene)amino]oxy}acetic acid] stands 65%. The result for `O=C(O)CO/N=C/c1cccc(OCc2ccc(F)cc2)c1OCc1ccc(F)cc1` [Compound 133, {[((1E)-{2,3-bis[(4-fluorobenzyl)oxy]phenyl}methylidene)amino]oxy}acetic acid] reads 20%; that for `O=C(O)CO/N=C/c1cccc(OCc2ccc(C(F)(F)F)cc2)c1OCc1ccc(C(F)(F)F)cc1` [Compound 134, ({[(1E)-(2,3-bis{[4-(trifluoromethyl)benzyl]oxy}phenyl)methylidene]amino}oxy)acetic acid], 100%. The result for `CC(C)(C)c1ccc(COc2cccc(/C=N/OCC(=O)O)c2OCc2ccc(C(C)(C)C)cc2)cc1` [Compound 135, {[((1E)-{2,3-bis[(4-tert-butylbenzyl)oxy]phenyl}methylidene)amino]oxy}acetic acid] reads 58%; that for `O=C(O)CO/N=C/c1cccc(OCc2cccc(Cl)c2)c1OCc1cccc(Cl)c1` [Compound 136, {[((1E)-{2,3-bis[(3-chlorobenzyl)oxy]phenyl}methylidene)amino]oxy}acetic acid], 80%; that for `O=C(O)CO/N=C/c1cccc(OCc2cccc(Br)c2)c1OCc1cccc(Br)c1` [Compound 137, {[((1E)-{2,3-bis[(3-bromobenzyl)oxy]phenyl}methylidene)amino]oxy}acetic acid], 79%.

Turning to `Cc1cccc(COc2cccc(/C=N/OCC(=O)O)c2OCc2cccc(C)c2)c1` [Compound 138, {[((1E)-{2,3-bis[(3-methylbenzyl)oxy]phenyl}methylidene)amino]oxy}acetic acid], the inhibition at 100 µM amounted to 88%. Under `O=C(O)CO/N=C/c1cccc(OCc2cccc(C(F)(F)F)c2)c1OCc1cccc(C(F)(F)F)c1` [Compound 139, ({[(1E)-(2,3-bis{[3-(trifluoromethyl)benzyl]oxy}phenyl)methylidene]amino}oxy)acetic acid] stands 90%; under `Cc1ccc(COc2cccc(/C=N/OCC(=O)O)c2OCc2ccc(C)cc2)cc1` [Compound 140, {[((1E)-{2,3-bis[(4-methylbenzyl)oxy]phenyl}methylidene)amino]oxy}acetic acid], 94%; under `O=C(O)CO/N=C/c1cccc(OCc2ccc(F)c(F)c2)c1OCc1ccc(F)c(F)c1` [Compound 141, {[((1E)-{2,3-bis[(3,4-difluorobenzyl)oxy]phenyl}methylidene)amino]oxy}acetic acid], 48%. Under `O=C(O)CO/N=C/c1cc(OCc2cccc(Cl)c2)cc(OCc2cccc(Cl)c2)c1` [Compound 142, {[((1E)-{3,5-bis[(3-chlorobenzyl)oxy]phenyl}methylidene)amino]oxy}acetic acid] stands 86%; under `O=C(O)CO/N=C/c1cc(OCc2ccc(F)cc2)cc(OCc2ccc(F)cc2)c1` [Compound 143, {[((1E)-{3,5-bis[(4-fluorobenzyl)oxy]phenyl}methylidene)amino]oxy}acetic acid], 95%. The result for `O=C(O)CO/N=C/c1cc(OCc2ccc(C(F)(F)F)cc2)cc(OCc2ccc(C(F)(F)F)cc2)c1` [Compound 144, ({[(1E)-(3,5-bis{[4-(trifluoromethyl)benzyl]oxy}phenyl)methylidene]amino}oxy)acetic acid] reads 93%; that for `O=C(O)CO/N=C/c1cc(OCc2ccc(Br)cc2)cc(OCc2ccc(Br)cc2)c1` [Compound 145, {[((1E)-{3,5-bis[(4-bromobenzyl)oxy]phenyl}methylidene)amino]oxy}acetic acid], 100%; that for `CC(C)(C)c1ccc(COc2cc(/C=N/OCC(=O)O)cc(OCc3ccc(C(C)(C)C)cc3)c2)cc1` [Compound 146, {[((1E)-{3,5-bis[(4-tert-butylbenzyl)oxy]phenyl}methylidene)amino]oxy}acetic acid], 49%.

On to `O=C(O)CO/N=C/c1cc(OCc2cccc(Br)c2)cc(OCc2cccc(Br)c2)c1` [Compound 147, {[((1E)-{3,5-bis[(3-bromobenzyl)oxy]phenyl}methylidene)amino]oxy}acetic acid], for which the inhibition at 100 µM turned out to be 87%. The result for `Cc1cccc(COc2cc(/C=N/OCC(=O)O)cc(OCc3cccc(C)c3)c2)c1` [Compound 148, {[((1E)-{3,5-bis[(3-methylbenzyl)oxy]phenyl}methylidene)amino]oxy}acetic acid] reads 88%. As to `O=C(O)CO/N=C/c1cc(OCc2cccc(C(F)(F)F)c2)cc(OCc2cccc(C(F)(F)F)c2)c1` [Compound 149, ({[(1E)-(3,5-bis{[3-(trifluoromethyl)benzyl]oxy}phenyl)methylidene]amino}oxy)acetic acid], the inhibition at 100 µM was 91%. The result for `Cc1ccc(COc2cc(/C=N/OCC(=O)O)cc(OCc3ccc(C)cc3)c2)cc1` [Compound 150, {[((1E)-{3,5-bis[(4-methylbenzyl)oxy]phenyl}methylidene)amino]oxy}acetic acid] reads 90%. The result for `O=C(O)CO/N=C/c1cc(OCc2ccc(F)c(F)c2)cc(OCc2ccc(F)c(F)c2)c1` [Compound 151, {[((1E)-{3,5-bis[(3,4-difluorobenzyl)oxy]phenyl}methylidene)amino]oxy}acetic acid] reads 88%; that for `O=C(O)CO/N=C/c1cc(OCc2cccc(C(F)(F)F)c2)ccc1OCc1cccc(C(F)(F)F)c1` [Compound 152, ({[(1E)-(2,5-bis{[3-(trifluoromethyl)benzyl]oxy}phenyl)methylidene]amino}oxy)acetic acid], 100%; that for `O=C(O)CO/N=C/c1cc(OCc2ccc(F)cc2)ccc1OCc1ccc(F)cc1` [Compound 153, {[((1E)-{2,5-bis[(4-fluorobenzyl)oxy]phenyl}methylidene)amino]oxy}acetic acid], 96%. `O=C(O)CO/N=C/c1cc(OCc2ccc(C(F)(F)F)cc2)ccc1OCc1ccc(C(F)(F)F)cc1` [Compound 154, ({[(1E)-(2,5-bis{[4-(trifluoromethyl)benzyl]oxy}phenyl)methylidene]amino}oxy)acetic acid]: the inhibition at 100 µM is 91%.

For `O=C(O)CO/N=C/c1cc(OCc2ccc(Br)cc2)ccc1OCc1ccc(Br)cc1` [Compound 155, {[((1E)-{2,5-bis[(4-bromobenzyl)oxy]phenyl}methylidene)amino]oxy}acetic acid], the inhibition at 100 µM turned out to be 85%.
